Article PMC8873473, “Antidiabetic, antioxidant, and anti-obesity effects of phenylthio-ethyl benzoate derivatives, and molecular docking study regarding α-amylase enzyme” (Scientific Reports, 2022)

How the values were obtained:
[1] = DPPH free radical scavenging test; conditions: 517 nm, 30 min incubation
Procedure: Four synthetic compounds were tested for the efficiency of scavenging free radicals matched with trolox and gallic acid as a basic. From the compounds, 1 mg/ml concentration solutions in methanol were prepared, and the solutions were used to prepare concentrations of 5, 10, 20, 30, 40, and 50 μg/ml. The DPPH reagent (0.002% w/v) was dissolved in methanol before mixed with working concentrations in ratios of 1:1:1 (compound:DPPH:methanol). The methanol solution was adopted as a blank. All the solutions were incubated for 30 min at room temperature in the dark. When the antioxidant compound reacts with DPPH, which can donate hydrogen, it is reduced the color changes from deep violet to light. Absorbance values were estimated by using a UV–Vis spectrophotometer at a wavelength of 517 nm. The DPPH inhibition percentage of all tested compound, trolox and gallic acid, was estimated according to the formula: Inhibitionpercentage=Ab-As/Ab×100%, where Ab is blank absorbance, and AS is sample absorbance. The IC50 values for tested synthetic compounds, trolox and gallic acid were determined from the curves.

[2] = molecular target: T1, porcine pancreatic amylase (Sus scrofa, UniProt P00690); test: α-Amylase inhibitory activity; type: biochemical; conditions: mean ± SD, triplicates; read-out: α-Amylase enzyme IC50 (converted)
T1 construct: purchased Frutarom (UK)
T1 sequence (P00690 16-511): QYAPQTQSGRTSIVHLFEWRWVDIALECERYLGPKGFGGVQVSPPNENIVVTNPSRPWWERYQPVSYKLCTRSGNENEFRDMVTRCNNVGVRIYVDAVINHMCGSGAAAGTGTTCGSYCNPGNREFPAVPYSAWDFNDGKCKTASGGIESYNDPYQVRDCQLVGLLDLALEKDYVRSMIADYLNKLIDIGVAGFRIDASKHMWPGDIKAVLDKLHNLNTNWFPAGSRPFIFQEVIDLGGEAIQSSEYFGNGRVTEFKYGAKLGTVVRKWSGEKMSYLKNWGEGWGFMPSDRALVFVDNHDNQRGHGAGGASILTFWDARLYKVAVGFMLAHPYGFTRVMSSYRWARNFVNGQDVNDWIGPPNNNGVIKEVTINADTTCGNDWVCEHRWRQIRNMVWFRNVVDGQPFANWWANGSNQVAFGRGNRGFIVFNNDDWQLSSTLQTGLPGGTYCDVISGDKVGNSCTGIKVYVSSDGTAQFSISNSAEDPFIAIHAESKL
Procedure: The α-amylase inhibitory evaluation was established following the Wickramaratne et al. procedure[13] with minor changes. Working solutions with concentrations of 10, 50, 100, 500, and 1000 µg/ml were produced from our synthesized compounds, diluting them with a buffer of Na2HPO4/NaH2PO4 (0.02 M), NaCl (0.006 M) at pH 6.9 and then brined up to 10 ml using a 10 ml volumetric flask. […] As percent inhibition, the enzyme inhibitory potential was expressed, and the following equation was utilized to estimate the IC50 dose for the samples[14]. %a-AmylaseInhibiton=Abs100%control-AbsSample/Abs100%Control×100

[3] = β-Carotene linoleic acid antioxidant test; conditions: concentration 0.2 mg/ml; for Absorbance in β-carotene linoleic acid test: after 75 min, 470 nm; for Antioxidant efficiency in β-carotene linoleic acid test: compared with water (control) and α-tocopherol
Procedure: The activity of the synthesized compounds was assessed via performing a modified assay of Gazzani and Miller[17]. The method was based on the coupled oxidation of β-carotene and linoleic acid emulsion. The bleaching mechanism of β-carotene is produced from the hydro-peroxides created from linoleic acid[18]. During the oxidation process, the characteristic orange color of β-carotene and the chromophore will be lost. The presence of antioxidants can hinder the extent of the β-carotene bleaching. Briefly, 1 mg of β-carotene was dissolved in 2 ml of chloroform, 20 mg of linoleic acid, and 200 mg of Tween 20. A rotary evaporator entirely vaporized chloroform at a temperature of less than 30 °C under reduced pressure. Then 200 ml of distilled water saturated with oxygen was added to the flask, which was shaken vigorously for 30 min. A sample (5 ml) of the prepared emulsion was transferred to a series of tubes containing 0.1 ml of the synthesized compounds or tocopherol (2 mg/ml).
The control sample was prepared in the same way but without added antioxidants. Each sample type was prepared in triplicate. The samples were inserted in a water bath at 50 °C for 2 h. The absorbance of the samples was measured using a spectrophotometer at a wavelength of 470 nm, immediately after the preparation of the samples, and at 15-min intervals until the end (t = 120 min) of the experiment.

[4] = molecular target: T2, porcine pancreatic lipase enzyme (Sus scrofa, UniProt P00591); test: Porcine pancreatic lipase inhibition (p-nitrophenyl butyrate hydrolysis); type: biochemical; conditions: read-out: Anti-lipase activity IC50 (converted)
T2 construct: purchased Frutarom (UK)
T2 sequence (P00591 1-450): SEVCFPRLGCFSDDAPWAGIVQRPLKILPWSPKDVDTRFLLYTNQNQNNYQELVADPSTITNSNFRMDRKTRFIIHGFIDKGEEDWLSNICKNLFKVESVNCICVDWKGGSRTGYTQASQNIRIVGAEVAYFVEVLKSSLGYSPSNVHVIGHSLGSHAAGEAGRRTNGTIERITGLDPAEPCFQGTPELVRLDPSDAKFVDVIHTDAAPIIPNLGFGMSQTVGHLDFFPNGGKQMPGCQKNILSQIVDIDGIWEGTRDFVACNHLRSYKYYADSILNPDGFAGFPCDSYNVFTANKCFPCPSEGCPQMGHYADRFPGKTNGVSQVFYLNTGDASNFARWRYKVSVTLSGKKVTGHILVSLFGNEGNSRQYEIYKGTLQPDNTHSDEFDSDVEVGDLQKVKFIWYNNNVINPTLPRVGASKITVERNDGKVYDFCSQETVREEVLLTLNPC
Procedure: The lipase inhibitory activity was conducted by following the method in the references with minor modifications[19]–[21]. The prepared synthesized compounds solutions (1 mg/ml) were diluted with 10% DMSO to produce five different dilutions (0.2, 0.4, 0.6, 0.8, and 1 mg/ml). […] A Tris–HCl buffer was used to zero UV–Vis spectrophotometer at 405 nm.
The hydrolysis of p-nitrophenyl butyrate to p-nitrophenyl was used to measure the influence of the synthetic acid esters on the porcine pancreatic lipase enzyme.

[5] = molecular target: α-glucosidase; test: α-Glucosidase (α-glycosidase) inhibitory activity, PNPG substrate; type: biochemical; conditions: mean ± SD, triplicates
Procedure: The inhibition of α-glucosidase activity by the synthesized molecules was measured. The α-glucosidase inhibitory activity is expressed as percentages of inhibition, which was calculated using the following formula: Inhibitoryeffect%=Ab-As/Ab∗100% where Ab and As are the absorbance values of the blank (containing PBS, α-glucosidase, and PNPG, the colored substrate of glucosidase) and the tested samples containing PBS, samples, α-glycosidase, and PNPG, respectively. The α-glucosidase activity was measured using 10 and 20 mg/ml of the synthesized molecules. Each concentration was recorded by using […] PNPG. The inhibitory pattern was assessed using a Lineweaver–Burk plot. The constant Ki of enzyme inhibitory effect was determined.

Antioxidant activity IC50, DPPH test [1] [mg/L]	IC50 [2] [µM]	IC50 [4] [µM]	α-Glycosidase enzyme IC50 [5] [mg/L]	SMILES	Absorbance in β-carotene linoleic acid test [3]	Antioxidant efficiency in β-carotene linoleic acid test [3]
47.01 ± 1.07	13.8	418	10.09 ± 0.70	O=C(OCCSc1ccccc1)c1ccccc1 [Compound 2a]	1.04	higher antioxidant efficiency
	45.3		89.95 ± 0.49	O=C(OCCSc1ccccc1)c1ccccc1O [Compound 2b]	0.84	higher antioxidant efficiency
	71.3	1240	78.1 ± 0.76	O=C(OCCSc1ccccc1)c1cccc(O)c1 [Compound 2c]		
	48.9	434	114.17 ± 1.04	O=C(OCCSc1ccccc1)c1ccc(O)cc1 [Compound 2d]		
31.72 ± 1.22				O=C(O)c1cc(O)c(O)c(O)c1 [Gallic acid, gallic acid]		
4.28 ± 0.47				Cc1c(C)c2c(c(C)c1O)CC[C@@](C)(C(=O)O)O2 [Trolox, (S)-(–)-6 hydroxy-2,5,7,8-tetramethychroman-2-carboxylic acid]		
